Data reported in patent US10513522B2, “Azetidinyl phenyl, pyridyl or pyrazinyl carboxamide derivatives as JAK inhibitors” (Incyte Corporation, priority 2011, dated 2019).

test system: human JAK1 (a.a. 837-1142); assay: In vitro JAK kinase assay (HTRF, phosphorylation of biotinylated peptide), JAK1; type: biochemical; details: ratio of IC50 at 1 mM ATP
Method: The catalytic activity of JAK1, JAK2 or JAK3 was assayed by measuring the phosphorylation of a biotinylated peptide. The phosphorylated peptide was detected by homogenous time resolved fluorescence (HTRF). […] Reactions were carried out at room temperature for 1 hour and then stopped with 20 μL 45 mM EDTA, 300 nM SA-APC, 6 nM Eu-Py20 in assay buffer (Perkin Elmer, Boston, Mass.). Binding to the Europium labeled antibody took place for 40 minutes and HTRF signal was measured on a Fusion plate reader (Perkin Elmer, Boston, Mass.).

JAK2/JAK1, A (A means greater than or equal to 10):
CN(C(=O)c1ccc(N2CC(CC#N)(n3cc(-c4ncnc5[nH]ccc45)cn3)C2)c(F)c1)C1CC1 [Example 7, 4-{3-(Cyanomethyl)-3-[4-(7H-pyrrolo[2,3-d]pyrimidin-4-yl)-1H-pyrazol-1-yl]azetidin-1-yl}-N-cyclopropyl-3-fluoro-N-methylbenzamide]
C[C@H](NC(=O)c1ccc(N2CC(CC#N)(n3cc(-c4ncnc5[nH]ccc45)cn3)C2)c(F)c1)C1CC1 [Example 5, 4-{3-(Cyanomethyl)-3-[4-(7H-pyrrolo[2,3-d]pyrimidin-4-yl)-1H-pyrazol-1-yl]azetidin-1-yl}-N-[(1S)-1-cyclopropylethyl]-3-fluorobenzamide]
N#CCC1(n2cc(-c3ncnc4[nH]ccc34)cn2)CN(c2cnc(C(=O)NC3(C(F)(F)F)CC3)cn2)C1 [Example 33, 5-{3-(Cyanomethyl)-3-[4-(7H-pyrrolo[2,3-d]pyrimidin-4-yl)-1H-pyrazol-1-yl]azetidin-1-yl}-N-[1-(trifluoromethyl)cyclopropyl]pyrazine-2-carboxamide]
C[C@@H](NC(=O)c1ccc(N2CC(CC#N)(n3cc(-c4ncnc5[nH]ccc45)cn3)C2)c(F)c1)C1CC1 [Example 4, 4-{3-(Cyanomethyl)-3-[4-(7H-pyrrolo[2,3-d]pyrimidin-4-yl)-1H-pyrazol-1-yl]azetidin-1-yl}-N-[(1R)-1-cyclopropylethyl]-3-fluorobenzamide]
C[C@@H](NC(=O)c1cc(F)c(N2CC(CC#N)(n3cc(-c4ncnc5[nH]ccc45)cn3)C2)cc1F)C(F)(F)F [Example 29, 4-{3-(Cyanomethyl)-3-[4-(7H-pyrrolo[2,3-d]pyrimidin-4-yl)-1H-pyrazol-1-yl]azetidin-1-yl}-2,5-difluoro-N-[(1R)-2,2,2-trifluoro-1-methylethyl]benzamide]
C[C@H](NC(=O)c1ccc(N2CC(CC#N)(n3cc(-c4ncnc5[nH]ccc45)cn3)C2)cc1F)C(F)(F)F [Example 22, 4-{3-(Cyanomethyl)-3-[4-(7H-pyrrolo[2,3-d]pyrimidin-4-yl)-1H-pyrazol-1-yl]azetidin-1-yl}-2-fluoro-N-[(1S)-2,2,2-trifluoro-1-methylethyl]benzamide]
CCNC(=O)c1ccc(N2CC(CC#N)(n3cc(-c4ncnc5[nH]ccc45)cn3)C2)cn1 [Example 24, 5-{3-(Cyanomethyl)-3-[4-(7H-pyrrolo[2,3-d]pyrimidin-4-yl)-1H-pyrazol-1-yl]azetidin-1-yl}-N-ethylpyridine-2-carboxamide]
CC(NC(=O)c1ccc(N2CC(CC#N)(n3cc(-c4ncnc5[nH]ccc45)cn3)C2)cc1)C1CCN(C)CC1 (stereo not shown) [Example 20, 4-{3-(Cyanomethyl)-3-[4-(7H-pyrrolo[2,3-d]pyrimidin-4-yl)-1H-pyrazol-1-yl]azetidin-1-yl}-N-[1-(1-methylpiperidin-4-yl)ethyl]benzamide]
CC(C)NC(=O)c1ccc(N2CC(CC#N)(n3cc(-c4ncnc5[nH]ccc45)cn3)C2)c(F)c1 [Example 3, 4-{3-(Cyanomethyl)-3-[4-(7H-pyrrolo[2,3-d]pyrimidin-4-yl)-1H-pyrazol-1-yl]azetidin-1-yl}-3-fluoro-N-isopropylbenzamide]
C[C@H](NC(=O)c1ccc(N2CC(CC#N)(n3cc(-c4ncnc5[nH]ccc45)cn3)C2)cn1)C1CC1 [Example 11, 5-{3-(Cyanomethyl)-3-[4-(7H-pyrrolo[2,3-d]pyrimidin-4-yl)-1H-pyrazol-1-yl]azetidin-1-yl}-N-[(1S)-1-cyclopropylethyl]pyridine-2-carboxamide]
